By IC50 is commonly meant the concentration that inhibits the measured activity by half.

The target of this test is T1, rh beta tryptase (Homo sapiens, UniProt Q15661).
T1 construct: purchased Promega
In words: tryptase inhibition test (cleavage of N-p-tosyl-Gly-Pro-Lys-para-nitroaniline, p-nitroaniline measured at 405 nm). It counts as biochemical. The note with it: Tris HCl buffer pH 7.4 with calcium and heparin; substrate 0.6 mM; 5 min pre-incubation, 5 min incubation at 37° C.; enzyme activity 0.91 U/ml. How it is done:
The compounds according to the invention are characterised by their tryptase-inhibiting activity. This ability to inhibit tryptase was investigated using the test described below. The measurement is carried out in Tris HCl buffer (100 mM), which additionally contains calcium (5 mM) and heparin (100 mg/ml), at pH 7.4. The standard used is rh beta tryptase which may be obtained commercially from Promega, for example. The substrate used is N-p-tosyl-Gly-Pro-Lys-para-nitroaniline in a concentration of 0.6 mM. The substrate is digested with tryptase to form p-nitroaniline which can be measured at 405 nm. Usually, an incubation period of 5 minutes and an incubation temperature of 37° C. are chosen. The enzyme activity used is 0.91 U/ml. The measurements are carried out in an Autoanalyser (CobasBio) made by Hofmann LaRoche. The potential inhibitory substances are used in concentrations of 10 μM in the screening, the inhibition of the tryptase being given in percent. The IC50 is determined at over 70% inhibition (concentration at which 50% of the enzyme activity is inhibited). After 5 minutes' pre-incubation of the potential inhibitory substances, the substrate is added to start the reaction, the formation of p-nitroaniline being taken as a measurement of the enzyme activity after 5 minutes, after testing the linearity.
The data obtained after the above test has been carried out (IC50 values) can be found in Table 3.

Where a name gives a salt, the structure may show the parent alone.

T1 sequence (Q15661 31-275): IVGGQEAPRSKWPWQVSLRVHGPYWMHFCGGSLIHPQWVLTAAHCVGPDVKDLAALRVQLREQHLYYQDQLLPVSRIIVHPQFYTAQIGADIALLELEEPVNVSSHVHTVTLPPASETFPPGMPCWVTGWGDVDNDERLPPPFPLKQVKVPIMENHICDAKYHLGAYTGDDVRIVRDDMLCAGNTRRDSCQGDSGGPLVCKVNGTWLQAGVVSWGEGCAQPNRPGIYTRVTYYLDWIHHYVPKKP

Consider “1-Methyl-2-[2-(4-amidino- phenyl)-ethyl]-5-[N-(4′-(3″- hydroxypropyl)-piperazin-1-yl- carbonylmethyl)-naphth-2-yl- sulphonylamino]-benzimidazole [Example 51]”, for which the half-inhibitory concentration (IC50) worked out at 35 nM.
Regarding `CCN(CC)CCN(c1ccc2c(c1)nc(CCc1ccc(C(=N)N)cc1)n2C)S(=O)(=O)c1ccccc1` [Example 2, N-{2-[2-(4-amidinophenyl)-ethyl]-1-methyl-benzimidazol-5-yl}-N-diethylaminoethyl-(benzenesulphonamide)-dihydrochloride], the IC50 came to 25 nM.
On to `CCOCCCn1c(CCc2ccc(C(=N)N)cc2)nc2cc(N(CCN(CC)CC)S(=O)(=O)c3ccccc3)ccc21` [Example 3, N-{2-[2-(4-amidinophenyl)-ethyl]-1-(3-ethoxy-propyl)-benzimidazol-5-yl}-N-diethylaminoethyl-(benzenesulphonamide)-dihydrochloride], for which the IC50 amounted to 132 nM.
Under `CN(C)c1ccc(CN(c2ccc3c(c2)nc(CCc2ccc(C(=N)N)cc2)n3C)S(=O)(=O)c2ccccc2)cc1` [Example 4, N-{2-[2-(4-amidinophenyl)-ethyl]-1-methyl-benzimidazol-5-yl}-N-(4-dimethylaminobenzyl)-(benzenesulphonamide)-dihydrochloride] stands 123 nM; under `CCN(CC)CCN(c1ccc2c(c1)nc(CCc1ccc(CN)cc1)n2C)S(=O)(=O)c1ccccc1` [Example 5, N-{2-[2-(4-aminomethyl-phenyl)-ethyl]-1-methyl-benzimidazol-5-yl}-N-diethylaminoethyl-(benzenesulphonamide)-dihydrochloride], 100 nM; under `CCCN(CCC)C1CCC(N(c2ccc3c(c2)nc(CCc2ccc(C(=N)N)cc2)n3C)S(=O)(=O)c2ccccc2)CC1` (stereo not drawn) [Example 7, 1-methyl-2-[2-(4-amidino-phenyl)-ethyl]-5-[N-(4-dipropyl-amino-cyclohexanyl)-benzene-sulphonyl-amino]-benzimidazole], 109 nM.
With `CN1CCC(CN(c2ccc3c(c2)nc(CCc2ccc(C(=N)N)cc2)n3C)S(=O)(=O)c2ccccc2)C1` (stereo not drawn) [Example 8, 1-methyl-2-[2-(4-amidino-phenyl)-ethyl]-5-[N-(1-methyl-pyrrolidin-3-yl-methyl)-benzene-sulphonyl-amino]-benzimidazole] the figure was 89 nM.
Under `CN1CCCC1CN(c1ccc2c(c1)nc(CCc1ccc(C(=N)N)cc1)n2C)S(=O)(=O)c1ccccc1` (stereo not drawn) [Example 9, 1-methyl-2-[2-(4-amidino-phenyl)-ethyl]-5-[N-(1-methyl-pyrrolidin-2-yl-methyl)-benzene-sulphonyl-amino]-benzimidazole] stands 62 nM; under `Cn1c(CCc2ccc(C(=N)N)cc2)nc2cc(N(C3CCNCC3)S(=O)(=O)c3ccccc3)ccc21` [Example 11, 1-methyl-2-[2-(4-amidino-phenyl)-ethyl]-5-[N-(4-piperidinyl)-benzenesulphonyl-amino]-benzimidazole], 90 nM; under `CN1CCC(N(c2ccc3c(c2)nc(CCc2ccc(C(=N)N)cc2)n3C)S(=O)(=O)c2ccccc2)CC1` [Example 12, 1-methyl-2-[2-(4-amidino-phenyl)-ethyl]-5-[N-(1-methyl-piperidin-4-yl)-benzene-sulphonylamino]-benzimidazole], 179 nM.
In the case of `Cn1c(CCc2ccc(C(=N)N)cc2)nc2cc(N(C3CCN(Cc4ccccc4)CC3)S(=O)(=O)c3ccccc3)ccc21` [Example 13, 1-methyl-2-[2-(4-amidino-phenyl)-ethyl]-5-[N-(1-benzyl-piperidin-4-yl)-benzene-sulphonylamino]-benzimidazole], the IC50 was 76 nM.
With `Cn1c(CCc2ccc(C(=N)N)cc2)nc2cc(N(C3CCNC3)S(=O)(=O)c3ccccc3)ccc21` (stereo not drawn) [Example 14, 1-methyl-2-[2-(4-amidino-phenyl)-ethyl]-5-[N-(3-pyrrolidinyl)-benzenesulphonyl-amino]-benzimidazole] the figure was 82 nM.
With `CCN(CC)CCN(c1ccc2c(c1)nc(CCc1ccc(C(=N)N)cc1)n2CCO)S(=O)(=O)c1ccccc1` [Example 16, 1-(2-hydroxyethyl)-2-[2-(4-amidinophenyl)-ethyl]-5-[N-(2-diethylaminoethyl)-benzene-sulphonylamino]-benzimidazole] the figure was 121 nM; with `CCN(CC)CCN(c1ccc2c(c1)nc(CCc1ccc(C(=N)N)cc1)n2CCOC)S(=O)(=O)c1ccccc1` [Example 17, 1-(2-methoxyethyl)-2-[2-(4-amidinophenyl)-ethyl]-5-[N-(2-diethylaminoethyl)-benezene-sulphonylamino]-benzimidazole], 62 nM.
As for `CCCn1c(CCc2ccc(C(=N)N)cc2)nc2cc(N(CCN(CC)CC)S(=O)(=O)c3ccccc3)ccc21` [Example 18, 1-n-propyl-2-[2-(4-amidino-phenyl)-ethyl]-5-[N-(2-diethyl-aminoethyl)-benzenesulphonyl-amino]-benzimidazole], the IC50 is 292 nM.
With `CCN(CC)CCN(c1ccc2c(c1)nc(CCc1ccc(C(=N)N)cc1)n2CCCO)S(=O)(=O)c1ccccc1` [Example 19, 1-(3-hydroxypropyl)-2-[2-(4-amidinophenyl)-ethyl]-5-[N-(2-diethylaminoethyl)-benzene-sulphonylamino]-benzimidazole] the figure was 239 nM; with `CCN(CC)CCN(c1ccc2c(c1)nc(CCc1ccc(C(=N)N)cc1)n2CCc1ccccc1)S(=O)(=O)c1ccccc1` [Example 24, 1-(2-phenylethyl)-2-[2-(4-amidinophenyl)-ethyl]-5-[N-(2-diethylaminoethyl)-benzene-sulphonylamino]-benzimidazole], 190 nM; with `CCN(CC)CCN(c1ccc2c(c1)nc(CCc1ccc(C(=N)N)cc1)n2CCCc1ccccc1)S(=O)(=O)c1ccccc1` [Example 25, 1-(3-phenylpropyl)-2-[2-(4-amidinophenyl)-ethyl]-5-[N-(2-diethylaminoethyl)-benzene-sulphonylamino]-benzimidazole], 412 nM.
With `CCN(CC)CCN(c1ccc2c(c1)nc(CCc1ccc(C(=N)N)cc1)n2CCOc1ccccc1OC)S(=O)(=O)c1ccccc1` [Example 26, 1-[2-(2-methoxyphenoxy)ethyl]-2-[2-(4-amidinophenyl)-ethyl]-5-[N-(2-diethylaminoethyl)-benzenesulphonylamino]-benzimidazole] the figure was 74 nM; with `CCN(CC)CCN(c1ccc2c(c1)nc(CCc1ccc(C(=N)N)cc1)n2CC1CCCO1)S(=O)(=O)c1ccccc1` (stereo not drawn) [Example 27, 1-(2-tetrahydrofurylmlethyl)-2-[2-(4-amidinophenyl)-ethyl]-5-[N-(2-diethylaminoethyl)-benzenesulphonylamino]-benzimidazole], 273 nM; with `CCN(CC)CCN(c1ccc2c(c1)nc(CCc1ccc(C(=N)N)cc1)n2C)S(=O)(=O)c1cccc2ccccc12` [Example 28, 1-methyl-2-[2-(4-amidino-phenyl)-ethyl]-5-[N-(2-diethyl-aminoethyl)-naphth-1-yl-sulphonylamino]-benzimidazole], 27 nM.
On to `Cn1c(CCc2ccc(C(=N)N)cc2)nc2cc(N(CCN3CCCCC3)S(=O)(=O)c3ccccc3)ccc21` [Example 33, 1-methyl-2-[2-(4-amidino-phenyl)-ethyl]-5-[N-(2-piperidin-1-ylethyl)-benzene-sulphonylamino]-benzimidazole], for which the IC50 stood at 44 nM.
With `Cn1c(CCc2ccc(C(=N)N)cc2)nc2cc(N(CCN3CCCC3)S(=O)(=O)c3ccccc3)ccc21` [Example 34, 1-methyl-2-[2-(4-amidino-phenyl)-ethyl]-5-[N-(2-pyrrolidin-1-ylethyl)-benzene-sulphonylamino]-benzimidazole] the figure was 43 nM.
Turning to `CCN(CC)CCN(c1ccc2c(c1)nc(CCc1ccc(C(=N)N)cc1)n2C)S(=O)(=O)c1ccc2ccccc2c1` [Example 35, 1-methyl-2-[2-(4-amidino-phenyl)-ethyl]-5-[N-(2-diethylaminoethyl)-naphth-2-yl-sulphonylamino]-benzimidazole], the IC50 was 6.6 nM.
On to `CCN(CC)CCN(c1ccc2c(c1)nc(CCc1ccc(C(=N)N)cc1)n2C)S(=O)(=O)c1csc2ccccc12` [Example 43, 1-Methyl-2-[2-(4-amidino-phenyl)-ethyl]-5-[N-(2-diethyl-aminoethyl)-benzo[b]thien-3-yl-sulphonylamino]-benzimidazole], for which the IC50 was 25 nM.
Turning to `Cn1c(CCc2ccc(C(=N)N)cc2)nc2cc(N(Cc3ccccn3)S(=O)(=O)c3ccc4ccccc4c3)ccc21` [Example 44, 1-Methyl-2-[2-(4-amidino-phenyl)-ethyl]-5-[N-(pyrid-2-yl-methyl)-naphth-2-ylsulphonyl-amino]-benzimidazole;], the IC50 came to 22 nM.
With `Cn1c(CCc2ccc(C(=N)N)cc2)nc2cc(N(Cc3cccnc3)S(=O)(=O)c3ccc4ccccc4c3)ccc21` [Example 45, 1-Methyl-2-[2-(4-amidino-phenyl)-ethyl]-5-[N-(pyrid-3-yl-methyl)-naphth-2-ylsulphonyl-amino]-benzimidazole;] the figure was 22 nM.

These data come from patent publication US6365584B1, “Arylysulphonamide-substituted benzimidazoles having tryptase-inhibiting activity” (Boehringer Ingelheim Pharma KG, priority 1999, dated 2002).
